Results taken from article PMC12621184, “Synthesis and Pharmacological Characterization of Nociceptin/Orphanin FQ Dimeric Ligands” (Journal of Medicinal Chemistry, 2025).
Bridge positions count the residues as written; N and C are the ends. Ends that are not written are not given here. Peptide text beside a SMILES is read from it. I, II: the chains in the order shown.

What was measured:
human NOP [1] = target: T1, human NOP (Homo sapiens, UniProt P41146); experiment: Calcium mobilization assay, CHO cells with NOP receptor and chimeric G protein; format: cell-based; set-up: expressed in transfected cells; details: for EC50: CHO cells coexpressing human NOP and Gαqi5, Fluo-4, 37 °C, mean (CL95%), N = 5 experiments in duplicate, read-out: Ca^2+ mobilization pEC50 (CL95%) (converted); for Ca^2+ mobilization E max ± sem: CHO cells coexpressing human NOP and Gαqi5, maximum change in percentage over baseline fluorescence, mean ± sem, N = 5 in duplicate
Experimental: Chinese hamster ovary (CHO) cells stably coexpressing the human NOP, μ, or κ opioid receptors and the Gαqi5 protein or the human δ and the GαqG66Di5 protein were used in this assay. , Cells were cultured in DMEM/F-12 (1:1) medium supplemented with 10% FBS, 2 mM L-glutamine, […], 100 IU/mL penicillin, and 100 IU/mL streptomycin. Cells were maintained at 37 °C in a humidified atmosphere with 5% CO2 and were seeded at 50 000 cells/well into 96-well black, clear-bottom plates 24 h before test. Loading for 45 min with a solution consisting of HBSS supplemented with 2.5 mM probenecid, 3 μM Fluo-4 AM, and 0.01% pluronic acid ensures the calcium-sensitive dye (Fluo-4) reaches the needed concentration inside the cell, while the exchange of the solution with 100 μL/well of buffer consisting of HBSS with 20 mM HEPES, 2.5 mM probenecid, and 500 μM Brilliant Black allows for fluorescence background to decrease. Serial dilutions of ligands were prepared in HBSS buffer with 20 mM HEPES and 0.02% bovine serum albumin (BSA) to minimize the ligands’ stickiness to plasticware. The automated microplate reader FlexStation II (Molecular Devices, CA, US) was employed at 37 °C to detect changes in fluorescence intensity. The effects of all compounds were expressed as the maximum change in percentage over the baseline fluorescence measured in samples treated with vehicles.
(§1) Concentration-response curves to agonists were analyzed by a four-parameter logistic nonlinear regression model: Effect = baseline + (E max – baseline)/(1 + 10^((logEC50–log[ligand])slope)). […] Experimental data were expressed as mean ± sem of at least 5 experiments. Potency values were expressed as the mean and CL95%. In vitro E max values were analyzed by one-way ANOVA, while in vivo latency data were evaluated by one-way ANOVA followed by Dunnett’s post hoc test. The proportion of mice losing the righting reflex was compared by Fisher’s exact test performed on raw data. GraphPad Prism 10.0 software was used for all of the analyses. The terminology employed is consistent with the International Union of Basic and Clinical Pharmacology (IUPHAR) recommendations. ,

human NOP [2] = target: T1, human NOP; experiment: NOP receptor–G protein interaction BRET assay; format: biochemical; set-up: expressed in transfected cells; host or cells: membranes of HEK293 cells stably coexpressing NOP-RLuc and Gβ1-RGFP; details: N = 5 experiments in duplicate; for EC50: membranes from HEK293 cells coexpressing NOP-RLuc and Gβ1-RGFP, room temperature, mean (CL95%), read-out: NOP–G protein interaction pEC50 (CL95%) (converted)
Experimental: A BRET interaction assay was used, as previously detailed in ref , to study the propensity of ligands to evoke interaction between the NOP receptor and to G protein. Membranes taken from HEK293 cells stably coexpressing the fusoproteins NOP-RLuc and Gβ1-RGFP were used. Such cells were grown in DMEM medium supplemented with 10% FBS, 2 mM L-glutamine, […] G418, […] hygromycin B, 100 IU/mL penicillin, and 100 IU/mL streptomycin in a humidified atmosphere with 5% CO2 at 37 °C. Cell membranes were thawed and resuspended in PBS supplemented with 0.01% BSA before the assay, and an amount of 3 μg of total protein was dispensed in each of the 96 wells together with 2 μM Prolume Purple Coelenterazine. All experiments were carried out at room temperature. Ligands were added, and averaged BRET ratios from 10 min measurements were computed. BRET ratios were computed as counts per second (CPS) obtained on a Victor Nivo (PerkinElmer) with 405 (10) nm and 510 (30) nm bandpass filters. Vehicles’ BRET ratios were derived from light passed through 510 divided by that passed through 405 filters. Vehicles BRET values were subtracted from all computations, and data sets were normalized as a fraction of N/OFQ maximal effects.
as §1

[3] = target: murine NOP receptor (mouse (endogenous in mouse vas deferens)) (UniProt P35377)
[4] = system: mouse vas deferens from NOP(+/+) mice; experiment: Electrically stimulated mouse vas deferens bioassay, NOP(+/+) tissues; details: mVD from CD-1 NOP(+/+) mice, 5 experiments
Experimental: (§2) This study was approved by the Animal Welfare Body of the University of Ferrara and by the Italian Ministry of Health (authorization number CBCC2.N.BXI). Experiments were performed on an isolated mouse vas deferens. All experiments were conducted with mice bred and housed in the University of Ferrara’s animal facility under specific pathogen-free conditions (SPF). All mice were housed in cages with individual ventilation, with a constant temperature of 21 °C, 60% humidity, and a 12 h light/dark cycle. Food and water were provided ad libitum. CD-1 NOP(+/+) and CD-1 NOP(−/−) male mice, aged 9 to 12 months, were used. Animals were sacrificed on the day of the experiment with CO2 overdose. Bioassay experiments were performed as previously described. The tissues were suspended in 5 mL organ bath containing Krebs solution (NaCl 118.5 […]). The Krebs solution was oxygenated with 95% O2 and 5% CO2 and the temperature set at 33 °C with a resting tension of 0.3 g applied to the tissues. Tissues were stimulated through two platinum electrodes with a supramaximal rectangular pulse of 1 ms duration, 0.05 Hz frequency, and 80 V of amplitude. The electrically evoked contractions were measured isotonically by means of Basile strain gauge transducers (Basile, IT) and a recorder with a Power Lab 8 instrument (ADInstruments, CO, U.S.). Following an equilibration period of approximately 60 min, the contractions induced by electrical field stimulation were stable. At this time, cumulative concentration response curves were carried out.
as §1

[5] = system: mouse vas deferens from NOP(−/−) mice; experiment: Electrically stimulated mouse vas deferens bioassay, NOP(−/−) tissues; details: mVD from CD-1 NOP(−/−) mice; 5 experiments
Experimental: as §2
Concentration-response curves to agonists were analyzed by a four-parameter logistic nonlinear regression model: Effect = baseline + (E max – baseline)/(1 + 10^((logEC50–log[ligand])slope)). […] Experimental data were expressed as mean ± sem of at least 5 experiments. Potency values were expressed as the mean and CL95%. In vitro E max values were analyzed by one-way ANOVA, while in vivo latency data were evaluated by one-way ANOVA followed by Dunnett’s post hoc test. […]

NOP-RLuc = NOP-RLuc (UniProt P41146)
[6] = target: human nociceptin/orphanin FQ (N/OFQ) peptide receptor (human) (UniProt P41146)
Sequence of human nociceptin/orphanin FQ (N/OFQ) peptide receptor (human) (P41146 whole entry): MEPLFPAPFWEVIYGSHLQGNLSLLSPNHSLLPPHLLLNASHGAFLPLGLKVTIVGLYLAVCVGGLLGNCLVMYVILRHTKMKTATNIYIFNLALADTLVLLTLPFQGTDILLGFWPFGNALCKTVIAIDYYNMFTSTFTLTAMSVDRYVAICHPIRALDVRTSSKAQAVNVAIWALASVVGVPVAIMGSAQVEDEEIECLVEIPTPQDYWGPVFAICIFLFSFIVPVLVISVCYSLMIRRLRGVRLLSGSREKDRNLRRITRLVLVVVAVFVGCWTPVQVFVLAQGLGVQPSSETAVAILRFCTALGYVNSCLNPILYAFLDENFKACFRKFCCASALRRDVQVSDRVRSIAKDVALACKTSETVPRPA

T1 sequence (P41146 whole entry): as above
Sequence of murine NOP receptor (mouse (endogenous in mouse vas deferens)) (P35377 whole entry): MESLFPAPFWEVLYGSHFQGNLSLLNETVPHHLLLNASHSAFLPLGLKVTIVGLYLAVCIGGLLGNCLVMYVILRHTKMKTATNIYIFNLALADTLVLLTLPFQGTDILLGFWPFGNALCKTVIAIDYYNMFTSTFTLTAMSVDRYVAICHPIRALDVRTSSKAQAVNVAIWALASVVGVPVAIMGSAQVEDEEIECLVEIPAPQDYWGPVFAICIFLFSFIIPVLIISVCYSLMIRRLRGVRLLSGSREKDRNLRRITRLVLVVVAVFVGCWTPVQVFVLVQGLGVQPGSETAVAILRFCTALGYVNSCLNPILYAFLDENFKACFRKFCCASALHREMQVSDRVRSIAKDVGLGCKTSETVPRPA
Sequence of NOP-RLuc (P41146 whole entry): as the sequence (P41146 whole entry) above

CC(C)C[C@H](NC(=O)[C@H](CCCCN)NC(=O)[C@H](CCCNC(=N)N)NC(=O)[C@H](C)NC(=O)[C@H](CO)NC(=O)[C@H](CCCCN)NC(=O)[C@H](CSSC[C@H](NC(=O)[C@H](C)NC(=O)CNC(=O)[C@@H](NC(=O)[C@H](Cc1ccccc1)NC(=O)CNC(=O)CNC(=O)[C@@H](N)Cc1ccccc1)[C@@H](C)O)C(=O)N[C@@H](CCCCN)C(=O)N[C@@H](CO)C(=O)N[C@@H](C)C(=O)N[C@@H](CCCNC(=N)N)C(=O)N[C@@H](CCCCN)C(=O)N[C@@H](CC(C)C)C(=O)N[C@@H](C)C(=O)N[C@@H](CC(N)=O)C(=O)N[C@@H](CCC(N)=O)C(N)=O)NC(=O)[C@H](C)NC(=O)CNC(=O)[C@@H](NC(=O)[C@H](Cc1ccccc1)NC(=O)CNC(=O)CNC(=O)[C@@H](N)Cc1ccccc1)[C@@H](C)O)C(=O)N[C@@H](C)C(=O)N[C@@H](CC(N)=O)C(=O)N[C@@H](CCC(N)=O)C(N)=O [1b, [[Cys^8]N/OFQ-NH2]2] (I: H-FGGFTGACKSARKLANQ-NH2 / II: H-FGGFTGACKSARKLANQ-NH2; disulfide I:8-II:8)
EC50 (human NOP [1]): 43.7 nM | Ca^2+ mobilization E max ± sem (human NOP [1]): 322 ± 20 % over the baseline | EC50 (human NOP [2]): 9.12 nM

CC(C)C[C@H](NC(=O)[C@H](CCCCN)NC(=O)[C@H](CCCNC(=N)N)NC(=O)[C@H](C)NC(=O)[C@H](CO)NC(=O)[C@H](CCCCN)NC(=O)[C@H](CCCNC(=N)N)NC(=O)[C@H](C)NC(=O)CNC(=O)[C@@H](NC(=O)[C@H](Cc1ccccc1)NC(=O)CNC(=O)CNC(=O)[C@@H](N)Cc1ccccc1)[C@@H](C)O)C(=O)N[C@@H](C)C(=O)N[C@@H](CSSC[C@H](NC(=O)[C@H](C)NC(=O)[C@H](CC(C)C)NC(=O)[C@H](CCCCN)NC(=O)[C@H](CCCNC(=N)N)NC(=O)[C@H](C)NC(=O)[C@H](CO)NC(=O)[C@H](CCCCN)NC(=O)[C@H](CCCNC(=N)N)NC(=O)[C@H](C)NC(=O)CNC(=O)[C@@H](NC(=O)[C@H](Cc1ccccc1)NC(=O)CNC(=O)CNC(=O)[C@@H](N)Cc1ccccc1)[C@@H](C)O)C(=O)N[C@@H](CCC(N)=O)C(N)=O)C(=O)N[C@@H](CCC(N)=O)C(N)=O [1j, [[Cys^16]N/OFQ-NH2]2] (I: H-FGGFTGARKSARKLACQ-NH2 / II: H-FGGFTGARKSARKLACQ-NH2; disulfide I:16-II:16)
EC50 (human NOP [1]): 1.38 nM | Ca^2+ mobilization E max ± sem (human NOP [1]): 312 ± 38 % over the baseline | NOP–G protein interaction E max ± sem (human NOP [2]; effects normalized to N/OFQ-NH2 (E max = 1), mean ± sem): 0.98 ± 0.02 | EC50 (human NOP [2]): 0.174 nM

CC(C)C[C@H](NC(=O)[C@H](CCCCN)NC(=O)[C@H](CCCNC(=N)N)NC(=O)[C@H](C)NC(=O)[C@H](CSSC[C@H](NC(=O)[C@H](CCCCN)NC(=O)[C@H](CCCNC(=N)N)NC(=O)[C@H](C)NC(=O)CNC(=O)[C@@H](NC(=O)[C@H](Cc1ccccc1)NC(=O)CNC(=O)CNC(=O)[C@@H](N)Cc1ccccc1)[C@@H](C)O)C(=O)N[C@@H](C)C(=O)N[C@@H](CCCNC(=N)N)C(=O)N[C@@H](CCCCN)C(=O)N[C@@H](CC(C)C)C(=O)N[C@@H](C)C(=O)N[C@@H](CC(N)=O)C(=O)N[C@@H](CCC(N)=O)C(N)=O)NC(=O)[C@H](CCCCN)NC(=O)[C@H](CCCNC(=N)N)NC(=O)[C@H](C)NC(=O)CNC(=O)[C@@H](NC(=O)[C@H](Cc1ccccc1)NC(=O)CNC(=O)CNC(=O)[C@@H](N)Cc1ccccc1)[C@@H](C)O)C(=O)N[C@@H](C)C(=O)N[C@@H](CC(N)=O)C(=O)N[C@@H](CCC(N)=O)C(N)=O [1d, [[Cys^10]N/OFQ-NH2]2] (I: H-FGGFTGARKCARKLANQ-NH2 / II: H-FGGFTGARKCARKLANQ-NH2; disulfide I:10-II:10)
EC50 (human NOP [1]): 1.91 nM | Ca^2+ mobilization E max ± sem (human NOP [1]): 305 ± 42 % over the baseline | EC50 (human NOP [2]): 0.141 nM

nociceptin/orphanin FQ (peptide)
maximal inhibition of electrically induced contractions of the mouse vas deferens, NOP(+/+) tissues [3]: 71% | potency (pEC50), inhibition of electrically induced contractions of the mouse vas deferens, NOP(+/+) tissues [3]: 7.59 pEC50

CC(C)C[C@H](NC(=O)[C@H](CCCCN)NC(=O)[C@H](CCCNC(=N)N)NC(=O)[C@H](C)NC(=O)[C@H](CO)NC(=O)[C@H](CSSC[C@H](NC(=O)[C@H](CCCNC(=N)N)NC(=O)[C@H](C)NC(=O)CNC(=O)[C@@H](NC(=O)[C@H](Cc1ccccc1)NC(=O)CNC(=O)CNC(=O)[C@@H](N)Cc1ccccc1)[C@@H](C)O)C(=O)N[C@@H](CO)C(=O)N[C@@H](C)C(=O)N[C@@H](CCCNC(=N)N)C(=O)N[C@@H](CCCCN)C(=O)N[C@@H](CC(C)C)C(=O)N[C@@H](C)C(=O)N[C@@H](CC(N)=O)C(=O)N[C@@H](CCC(N)=O)C(N)=O)NC(=O)[C@H](CCCNC(=N)N)NC(=O)[C@H](C)NC(=O)CNC(=O)[C@@H](NC(=O)[C@H](Cc1ccccc1)NC(=O)CNC(=O)CNC(=O)[C@@H](N)Cc1ccccc1)[C@@H](C)O)C(=O)N[C@@H](C)C(=O)N[C@@H](CC(N)=O)C(=O)N[C@@H](CCC(N)=O)C(N)=O [1c, [[Cys^9]N/OFQ-NH2]2] (I: H-FGGFTGARCSARKLANQ-NH2 / II: H-FGGFTGARCSARKLANQ-NH2; disulfide I:9-II:9)
EC50 (human NOP [1]): 5.01 nM | Ca^2+ mobilization E max ± sem (human NOP [1]): 289 ± 18 % over the baseline | EC50 (human NOP [2]): 1.35 nM

[D-Pen^2,D-Pen^5]enkephalin [DPDPE]
potency (pEC50) for inhibition of electrically induced contractions ([4]; 33 °C, mean (CL95%)): 7.72 (7.45–7.99) | maximal inhibition of electrically induced contractions ([4]; mean ± sem): 86 ± 6% | effect in mVD tissues from NOP(−/−) mice (in words) [5]: superimposable

FGGFTGARKSARKCANQ-NH2 (also: homodimer: Cys14-Cys14 disulfide to second copy) [[[Cys^14]N/OFQ-NH2]2]
pEC50, NOP–G protein interaction (BRET, membranes of HEK293 cells with NOP-RLuc and Gβ1-RGFP) (NOP-RLuc): 9.91 pEC50 | E max, NOP–G protein interaction (BRET), normalised to N/OFQ-NH2 (E max = 1) (NOP-RLuc; scale: fraction of the maximal effect of N/OFQ-NH2): 0.8 | E max, Ca^2+ mobilization in CHO cells with human NOP and Gαqi5 (% over baseline) [6]: 241 | pEC50, Ca^2+ mobilization in CHO cells with human NOP and Gαqi5 [6]: 9.14 pEC50 | pEC50, inhibition of electrically induced contractions of the mouse vas deferens, NOP(+/+) tissues [3]: 6.79 pEC50
